Measurements: patent US7226766B2, “S-methylcysteine, S-ethylcysteine, and related S-alkylthiols as antagonists to the effects of S-nitrosothiols and nitric oxide” (University of Iowa Research Foundation, priority 2001, dated 2007)

Columns and labels:
[1] = test system: Sprague-Dawley rats treated with lipopolysaccharide (septic shock model); assay: experimental model of septic shock: lipopolysaccharide-treated conscious rats, hemodynamic measurements and deaths; format: in vivo, rat; conditions: for number of treated rats that died: lipopolysaccharide-treated rats, 22 rats received L-NAME, 12 rats S-methyl cysteine; for mean arterial pressure after treatment: rats 72 hours after lipopolysaccharide 0.5 mg/kg i.p., L-NAME 25 μmole/kg or S-methyl-L-cysteine 200 nmol/kg infusion for 10 minutes + 500 nmol/kg bolus; for total peripheral resistance after treatment (in words): L-NAME 25 μmole/kg or S-methyl-L-cysteine 200 nmol/kg infusion + 500 nmol/kg bolus
Experimental: Male 16 week old Sprague-Dawley rats were anesthetized for surgical placement of intraaortic pressure tranducers and Dopplar flow probes around the abdominal aorta and the left main coronary artery. After 48 hours of recovery baseline measurements of arterial blood pressure, cardiac output (as Dopplar flow), and coronary blood flow (Dopplar) were obtained in conscious unrestrained animals. The rats were then treated with intraperotoneal injections of purified lipopolysaccharide 0.5 mg/kg. After 72 hours when the induction of iNOS had produced a fall in blood pressure, measurements were repeated. Each rat then received either 25 μmole/kg of the nitric oxide synthase inhibitor L-NAME or an infusion of 200 nmol/kg of S-methyl-L-cysteine for 10 minutes followed by a 500 nmol/kg bolus dose of S-methyl-L-cysteine. The measurements were then repeated a third time.

[2] = test system: hypotensive effects of infused S-nitrosocysteine; assay: inhibition of the hypotensive effects of infused S-nitrosocysteine; conditions: in vivo
[3] = rats 72 hours after lipopolysaccharide, L-NAME 25 μmole/kg
[4] = rats 72 hours after lipopolysaccharide

## COC(=O)[C@@H](N)CCCNC(=N)N[N+](=O)[O-] [L-NAME, Nω-nitro-L-arginine methyl ester, reference compound]
[1]
  number of treated rats that died: 7
  mean arterial pressure after treatment: returned mean arterial pressure to baseline values
[1]; [3]
  coronary resistance after treatment: about 160 % of baseline values
  heart rate after treatment: about 60 % of the pre-treatment values
  total peripheral resistance after treatment: about 160 % of baseline values
[1]; [4]
  total peripheral resistance after treatment (in words): increased total peripheral resistance far above normal
[1]; rats 72 hours after lipopolysaccharide, L-NAME 25 μmole/kg, Doppler
  coronary blood flow after treatment: about 60 % of the pre-treatment values
[1]; rats 72 hours after lipopolysaccharide, L-NAME 25 μmole/kg, Doppler flow
  cardiac output after treatment: about 60 % of the pre-treatment values

## CSC[C@H](N)C(=O)O [S-methyl-L-cysteine]
[2]
  effect on the hypotensive effects of infused S-nitrosocysteine: inhibit the hypotensive effects of infused S-nitrosocysteine
[1]
  number of treated rats that died: none died
  mean arterial pressure after treatment: attenuated the hypotension induced by lipopolysaccharide
[1]; listed as S-methyl cysteine
  mean arterial pressure after treatment: returned mean arterial pressure to baseline values
[1]; [4]
  total peripheral resistance after treatment (in words): returned to normal values
[1]; rats 72 hours after lipopolysaccharide, S-methyl-L-cysteine 200 nmol/kg infusion for 10 minutes + 500 nmol/kg bolus
  coronary blood flow after treatment (in words): to pre-treatment values
